Test results from PMC11347161, “Sequence diversity of apidaecin-like peptides arresting the terminating ribosome” (Nucleic Acids Research, 2024).

Tested on: E. coli BL21 cells
Assay: Negative (depletion) selection of clones expressing Api variants, NGS
Type: cell-based
Conditions: log2-fold change of clone abundance, three replicates, edgeR
Protocol: Prior to the library screening, pilot experiments were conducted to optimize arabinose concentration. To achieve this, E. coli BL21 cells transformed with the pApi plasmid carrying the wt Api gene were plated on LB/agar plates supplemented with Amp and increasing concentrations of arabinose in the 0.05–0.2% range. […] Subsequent library depletion experiments were carried out on plates containing 0.05% arabinose.
For the negative selection targeted at depleting the clones expressing active Api-like peptides, the 2 ml library stock containing a total of ∼2 × 10^9 colony forming units (cfu) was thawed, diluted 3-fold in LB medium and allowed to recover for 30 min at 37°C. Subsequently, the cultures with the recovered cells were thoroughly mixed, and equal volumes (300 μl) were plated on ten LB/Amp plates supplemented with 2% glucose (for the total library) or ten LB/Amp plates supplemented with 0.05% arabinose (for the library depleted of clones expressing active Api variants). After incubation at 37°C for 16 h, clones were washed off the plates and cell suspensions were used for preparation of the total plasmid, resulting in the pApi(Glu) and pApi(Ara) plasmid preps. The depletion experiments were carried out in three independent replicates.
For deep sequencing of the genes encoding Api-like peptides, the peptide-coding genes were PCR-amplified from the total pApi(Glu) and pApi(Ara) plasmids. Two 50 μl PCR reactions were carried out for each sample using Q5 DNA polymerase (New England Biolabs). The reactions were run in the manufacturer provided buffer, each reaction containing 20 ng of plasmid DNA and 10 pmol of primers Api_Lib_F_i5X and Api_Lib_R_i7X (Supplementary Table S2) which added specific bar codes to the individual samples. PCR amplification was carried out under the following conditions: 98°C, 30 s; 10 cycles of [98°C/10 s, 56°C/20 s, 72°C/10 s]; 72°C 120 s. The PCR products were size-fractionated and extracted from the denaturing 8% polyacrylamide gel. Bar-coded DNA libraries (Supplementary Figure S1B) were combined and sequenced on Illumina MiSeq after being spiked in with PhiX Control v3 library (Illumina) to compensate for sequence diversity of the sample.
Sequencing has generated >350 million total reads for the three unselected samples and > 300 million total reads for the depleted library samples. The raw reads were trimmed to the size of the peptide gene and those containing internal ambiguous bases or being less than 60 bases in length were discarded. The nucleotide sequences were translated into amino acid sequences and the peptides lacking N-terminal methionine or deviating from the size of the expected sequence were eliminated. Peptides with <100 reads in each of the pApi(Glu) samples were also discarded. Subsequently, the filtered data underwent differential abundance analysis using the standard workflow of edgeR within the R/Bioconductor package ([27]). This analysis generated logFC (the log2-fold change of unique peptides between Glu and Ara samples), q-values (adjusted P-values with the FDR correction), and log10 CPM values (log counts per million), detailed in Dataset 1. A volcano plot was generated in R to visualize the differential abundance of unique peptides based on these parameters.

[1] = sheet Negative Selection logFC>1, q<0.005 (putatively functional variants), arabinose vs glucose, endogenously expressed peptide
[2] = sheet diff-NS-All, induced (0.05% arabinose) vs non-induced (2% glucose), endogenously expressed peptide with N-terminal Met

Substance: MGNNRKVYIGEPRPPYPRL* [endogenously expressed Api library variant K6,G10,E11,Y16 (numbering includes Met)]
- Ara/Glu: logFC [1]: -4.01
- Ara/Glu: logFC [2]: -4.01

Substance: MGNNRNVYIAQPRPYHPRI* [endogenously expressed Api library variant N6,A10,Y15,I19 (numbering includes Met)]
- Ara/Glu: logFC [2]: -4.88

Substance: MLNNIGVQVPKPRPPHPRL* [endogenously expressed Api library variant L2,I5,G6,Q8,V9,K11 (numbering includes Met)]
- Ara/Glu: logFC [2]: -3.95

Substance: MTNNRKVYEPEPRPPHPRL* [endogenously expressed Api library variant T2,K6,E9,E11 (numbering includes Met)]
- Ara/Glu: logFC [1]: -4.06
- Ara/Glu: logFC [2]: -4.06
